Each compound was assayed against T1, rat NaPi-2b (Rattus norvegicus, UniProt Q9JJ09) (assay: Sodium-dependent phosphate uptake of Xenopus oocytes which expressed NaPi-2b (32P)). Conditions: Xenopus oocytes expressing rat NaPi-2b, 32P radioactive phosphorus; read-out: IC50 (phosphate uptake inhibitory activity).
T1 construct: expressed in transfected cells; host or cells: Xenopus oocytes injected with cRNA
T1 sequence (Q9JJ09 1-695): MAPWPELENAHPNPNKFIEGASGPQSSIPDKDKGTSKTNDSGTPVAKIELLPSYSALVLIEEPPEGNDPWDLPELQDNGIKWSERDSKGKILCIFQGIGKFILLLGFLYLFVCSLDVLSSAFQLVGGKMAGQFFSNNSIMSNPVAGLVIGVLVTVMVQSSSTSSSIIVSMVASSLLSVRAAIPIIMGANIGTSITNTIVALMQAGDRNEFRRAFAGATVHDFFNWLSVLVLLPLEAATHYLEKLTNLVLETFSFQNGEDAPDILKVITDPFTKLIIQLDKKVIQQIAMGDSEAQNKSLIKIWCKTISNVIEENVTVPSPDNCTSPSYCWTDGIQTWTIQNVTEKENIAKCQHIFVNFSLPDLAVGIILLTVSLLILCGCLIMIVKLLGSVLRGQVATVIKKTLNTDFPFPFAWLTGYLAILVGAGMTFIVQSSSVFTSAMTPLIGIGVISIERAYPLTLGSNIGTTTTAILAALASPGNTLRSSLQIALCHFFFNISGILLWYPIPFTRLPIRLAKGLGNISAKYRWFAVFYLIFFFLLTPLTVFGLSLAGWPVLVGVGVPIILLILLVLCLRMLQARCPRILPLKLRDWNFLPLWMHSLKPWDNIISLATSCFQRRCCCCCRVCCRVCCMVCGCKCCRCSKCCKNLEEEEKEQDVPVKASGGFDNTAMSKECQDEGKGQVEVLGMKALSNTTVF
Assay type: cell-based
Outline: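 Rat NaPi-2b cloned from small-intestine cDNA; cRNA injected into Xenopus oocytes, expression for 2 days. Phosphate uptake inhibition measured with 32P; percent inhibition at 300 μM and 100 μM read from the same inhibition curve.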
`Cc1csc(NC(=O)c2cccc(CN3CCN(CCO)CC3)c2)c1C(=O)N/N=C/c1ccc(F)cc1` [Compound 577, N-[3-(4-Fluoro-benzylidene-hydrazinocarbonyl)-4-methyl-thiophen-2-yl]-3-[4-(2-hydroxy-ethyl)-piperazin-1-ylmethyl]-benzamide] was tested, and the IC50 was < 3 µM. `Cc1csc(NC(=O)c2cccc(CN3CCN(CCO)CC3)c2)c1C(=O)N/N=C/c1cccc(F)c1` [Compound 578, N-[3-(3-Fluoro-benzylidene-hydrazinocarbonyl)-4-methyl-thiophen-2-yl]-3-[4-(2-hydroxy-ethyl)-piperazin-1-ylmethyl]-benzamide] was tested, and the IC50 was < 3 µM. With `Cc1csc(NC(=O)c2cccc(CN3CCN(CCO)CC3)c2)c1C(=O)N/N=C/c1ccc(Cl)c(C(F)(F)F)c1` [Compound 579, N-[3-(4-Chloro-3-trifluoromethyl-benzylidene-hydrazinocarbonyl)-4-methyl-thiophen-2-yl]-3-[4-(2-hydroxy-ethyl)-piperazin-1-ylmethyl]-benzamide] the IC50 was < 3 µM. For `COc1ccc(/C=N/NC(=O)c2c(C)csc2NC(=O)c2cccc(CN3CCN(CCO)CC3)c2)cc1` [Compound 580, 3-[4-(2-Hydroxy-ethyl)-piperazin-1-ylmethyl]-N-[3-(4-methoxy-benzylidene-hydrazinocarbonyl)-4-methyl-thiophen-2-yl]-benzamide], the IC50 was < 3 µM. With `CCN(CC)CCNCc1cccc(C(=O)Nc2scc(C)c2C(=O)N/N=C/c2ccc(C)c(C)c2)c1` [Compound 581, 3-[(2-Diethylamino-ethylamino)-methyl]-N-[3-(3,4-dimethyl-benzylidene-hydrazinocarbonyl)-4-methyl-thiophen-2-yl]-benzamide] the IC50 was < 3 µM. With `CCN(CC)CCNCc1cccc(C(=O)Nc2scc(C)c2C(=O)N/N=C/c2ccc(C)cc2)c1` [Compound 582, 3-[(2-Diethylamino-ethylamino)-methyl]-N-[4-methyl-3-(4-methyl-benzylidene-hydrazinocarbonyl)-thiophen-2-yl]-benzamide] the IC50 was < 3 µM. In the case of `CCN(CC)CCNCc1cccc(C(=O)Nc2scc(C)c2C(=O)N/N=C/c2ccc(F)cc2)c1` [Compound 583, 3-[(2-Diethylamino-ethylamino)-methyl]-N-[3-(4-fluoro-benzylidene-hydrazinocarbonyl)-4-methyl-thiophen-2-yl]-benzamide], the IC50 is reported as < 3 µM. For `CCN(CC)CCNCc1cccc(C(=O)Nc2scc(C)c2C(=O)N/N=C/c2cccc(F)c2)c1` [Compound 584, 3-[(2-Diethylamino-ethylamino)-methyl]-N-[3-(3-fluoro-benzylidene-hydrazinocarbonyl)-4-methyl-thiophen-2-yl]-benzamide], the IC50 was < 3 µM. For `CCN(CC)CCNCc1cccc(C(=O)Nc2scc(C)c2C(=O)N/N=C/c2ccc(Cl)c(C(F)(F)F)c2)c1` [Compound 585, N-[3-(4-Chloro-3-trifluoromethyl-benzylidene-hydrazinocarbonyl)-4-methyl-thiophen-2-yl]-3-[(2-diethylamino-ethylamino)-methyl]-benzamide], the IC50 was < 3 µM. For `CCN(CC)CCNCc1cccc(C(=O)Nc2scc(C)c2C(=O)N/N=C/c2ccc(OC)cc2)c1` [Compound 586, 3-[(2-Diethylamino-ethylamino)-methyl]-N-[3-(4-methoxy-benzylidene-hydrazinocarbonyl)-4-methyl-thiophen-2-yl]-benzamide], the IC50 was < 3 µM. With `Cc1ccc(/C=N/NC(=O)c2c(C)csc2NC(=O)c2cccc(CN(CC(C)O)CC(C)O)c2)cc1C` (stereo not drawn) [Compound 587, 3-{[Bis-(2-hydroxy-propyl)-amino]-methyl}-N-[3-(3,4-dimethyl-benzylidene-hydrazinocarbonyl)-4-methyl-thiophen-2-yl]-benzamide] the IC50 was < 3 µM. With `Cc1ccc(/C=N/NC(=O)c2c(C)csc2NC(=O)c2cccc(CN(CC(C)O)CC(C)O)c2)cc1` (stereo not drawn) [Compound 588, 3-{[Bis-(2-hydroxy-propyl)-amino]-methyl}-N-[4-methyl-3-(4-methyl-benzylidene-hydrazinocarbonyl)-thiophen-2-yl]-benzamide] the IC50 was 9.33 µM. In the case of `Cc1csc(NC(=O)c2cccc(CN(CC(C)O)CC(C)O)c2)c1C(=O)N/N=C/c1ccc(F)cc1` (stereo not drawn) [Compound 589, 3-{[Bis-(2-hydroxy-propyl)-amino]-methyl}-N-[3-(4-fluoro-benzylidene-hydrazinocarbonyl)-4-methyl-thiophen-2-yl]-benzamide], the IC50 is reported as < 3 µM. With `Cc1csc(NC(=O)c2cccc(CN(CC(C)O)CC(C)O)c2)c1C(=O)N/N=C/c1cccc(F)c1` (stereo not drawn) [Compound 590, 3-{[Bis-(2-hydroxy-propyl)-amino]-methyl}-N-[3-(3-fluoro-benzylidene-hydrazinocarbonyl)-4-methyl-thiophen-2-yl]-benzamide] the IC50 was 6.18 µM. For `Cc1ccc(/C=N/NC(=O)c2c(C)csc2NC(=O)c2cccc(CN3CCC(O)CC3)c2)cc1C` [Compound 593, N-[3-(3,4-Dimethyl-benzylidene-hydrazinocarbonyl)-4-methyl-thiophen-2-yl]-3-(4-hydroxy-piperidin-1-ylmethyl)-benzamide], the IC50 was < 3 µM. For `Cc1ccc(/C=N/NC(=O)c2c(C)csc2NC(=O)c2cccc(CN3CCC(O)CC3)c2)cc1` [Compound 594, 3-(4-Hydroxy-piperidin-1-ylmethyl)-N-[4-methyl-3-(4-methyl-benzylidene-hydrazinocarbonyl)-thiophen-2-yl]-benzamide], the IC50 was 3.6 µM. For `Cc1csc(NC(=O)c2cccc(CN3CCC(O)CC3)c2)c1C(=O)N/N=C/c1ccc(F)cc1` [Compound 595, N-[3-(4-Fluoro-benzylidene-hydrazinocarbonyl)-4-methyl-thiophen-2-yl]-3-(4-hydroxy-piperidin-1-ylmethyl)-benzamide], the IC50 was 3.87 µM. With `Cc1csc(NC(=O)c2cccc(CN3CCC(O)CC3)c2)c1C(=O)N/N=C/c1cccc(F)c1` [Compound 596, N-[3-(3-Fluoro-benzylidene-hydrazinocarbonyl)-4-methyl-thiophen-2-yl]-3-(4-hydroxy-piperidin-1-ylmethyl)-benzamide] the IC50 was 5.47 µM. With `Cc1csc(NC(=O)c2cccc(CN3CCC(O)CC3)c2)c1C(=O)N/N=C/c1ccc(Cl)c(C(F)(F)F)c1` [Compound 597, N-[3-(4-Chloro-3-trifluoromethyl-benzylidene-hydrazinocarbonyl)-4-methyl-thiophen-2-yl]-3-(4-hydroxy-piperidin-1-ylmethyl)-benzamide] the IC50 was 1.47 µM. `COc1ccc(/C=N/NC(=O)c2c(C)csc2NC(=O)c2cccc(CN3CCC(O)CC3)c2)cc1` [Compound 598, 3-(4-Hydroxy-piperidin-1-ylmethyl)-N-[3-(4-methoxy-benzylidene-hydrazinocarbonyl)-4-methyl-thiophen-2-yl]-benzamide] was tested, and the IC50 was 53 µM. With `Cc1ccc(/C=N/NC(=O)c2c(C)csc2NC(=O)c2cccc(CN3CCC(CO)CC3)c2)cc1C` [Compound 599, N-[3-(3,4-Dimethyl-benzylidene-hydrazinocarbonyl)-4-methyl-thiophen-2-yl]-3-(4-hydroxymethyl-piperidin-1-ylmethyl)-benzamide] the IC50 was < 3 µM. `Cc1ccc(/C=N/NC(=O)c2c(C)csc2NC(=O)c2cccc(CN3CCC(CO)CC3)c2)cc1` [Compound 600, 3-(4-Hydroxymethyl-piperidin-1-ylmethyl)-N-[4-methyl-3-(4-methyl-benzylidene-hydrazinocarbonyl)-thiophen-2-yl]-benzamide] gave an IC50 of 3.84 µM. `Cc1csc(NC(=O)c2cccc(CN3CCC(CO)CC3)c2)c1C(=O)N/N=C/c1ccc(F)cc1` [Compound 601, N-[3-(4-Fluoro-benzylidene-hydrazinocarbonyl)-4-methyl-thiophen-2-yl]-3-(4-hydroxymethyl-piperidin-1-ylmethyl)-benzamide] was tested, and the IC50 was < 3 µM. `Cc1csc(NC(=O)c2cccc(CN3CCC(CO)CC3)c2)c1C(=O)N/N=C/c1cccc(F)c1` [Compound 602, N-[3-(3-Fluoro-benzylidene-hydrazinocarbonyl)-4-methyl-thiophen-2-yl]-3-(4-hydroxymethyl-piperidin-1-ylmethyl)-benzamide] showed an IC50 of 3.98 µM. For `Cc1csc(NC(=O)c2cccc(CN3CCC(CO)CC3)c2)c1C(=O)N/N=C/c1ccc(Cl)c(C(F)(F)F)c1` [Compound 603, N-[3-(4-Chloro-3-trifluoromethyl-benzylidene-hydrazinocarbonyl)-4-methyl-thiophen-2-yl]-3-(4-hydroxymethyl-piperidin-1-ylmethyl)-benzamide], the IC50 was < 3 µM. `COc1ccc(/C=N/NC(=O)c2c(C)csc2NC(=O)c2cccc(CN3CCC(CO)CC3)c2)cc1` [Compound 604, 3-(4-Hydroxymethyl-piperidin-1-ylmethyl)-N-[3-(4-methoxy-benzylidene-hydrazinocarbonyl)-4-methyl-thiophen-2-yl]-benzamide] was tested, and the IC50 was 9.23 µM. `Cc1ccc(/C=N/NC(=O)c2c(NC(=O)c3cccc(CSCCCO)c3)sc3c2CCCC3)cc1C` [Compound 605, N-[3-(3,4-Dimethyl-benzylidene-hydrazinocarbonyl)-4,5,6,7-tetrahydro-benzo[b]thiophen-2-yl]-3-(3-hydroxy-propylsulfanyl-methyl)-benzamide] was tested, and the IC50 was 0.95 µM.
